Values joined by “and” are separate entries in the source; they are usually repeats but may differ in a detail not shown here. Equal entries are not always repeated. “Also recorded” adds a separate entry of the source. Marks after values point to notes of the source that are not given here.
Experiments:
ARPE-19 cells = assay: Cell proliferation assay (ARPE-19/WST-1); format: cell-based; details: Homo sapiens, 120 h, 5 days, WST-1, read-out: 50% cytotoxicity concentration (CC50)
Experimental: (§1) Human retinal pigment epithelium (ARPE-19) cells were obtained from the American Type Culture Collection (ATCC; Manassas, VA). A rat Müller cell line, rMC-1, was provided by Dr. Gabe Silva at UC San Diego (originally obtained from Dr. Vijay Sarthy, Northwestern University, Chicago, IL). ARPE-19 cells were cultured in Dulbecco’s modified Eagle medium (DMEM)/F12 and rMC-1 in DMEM. DMEM/F12 medium and DMEM were maintained at 37 °C in a humidified chamber of 5% CO2. All culture media were supplemented with 10% fetal bovine serum, 100 U/ml penicillin, and 100 µg/ml streptomycin. The cell lines were chosen due to their dominant presence in the pathology of proliferative vitreoretinopathy.
ARPE-19 cells were plated in 96-well plates at […] per well. Serial dilutions of the compounds were added to the wells in a total volume of 100 µl. The plates were maintained in a 37 °C incubator. After 5 days, 10 µl of a solution of WST-1 (Roche Diagnostics, Indianapolis, IN) was added to each well, and the plates returned to the incubator for 0.5 h, after which the OD450 of each well was measured. Percent inhibition data were obtained from at least three experiments with at least six wells at each concentration in separate 96-well plates. […] The results were expressed as the percentage of the optical density of treated cells relative to that of untreated controls.

rMC-1 cells = assay: Cell proliferation assay (rMC-1/XTT); format: cell-based; details: Rattus norvegicus, 120 h, 5 days, XTT, read-out: 50% cytotoxicity concentration (CC50)
Experimental: as §1
rMC-1 cells were plated in 96-well plates at […] per well. Serial dilutions of the compounds were added to the wells in a total volume of 100 µl. The plates were maintained in a 37 °C incubator. After 5 days, 50 µl of a solution of XTT (Roche Molecular Biochemicals, Indianapolis, IN) was added to each well, and the plates returned to the incubator for 30 min, after which the […] (OD) of each well was measured at a wavelength of 450 nanometers. Percent inhibition was determined by comparing the OD of wells containing compound to the OD of control wells.

[1] = Simulated intravitreal clearance kinetics (dissolution chamber); format: in vitro ADME
Experimental: Dissolution starting from an intravitreal drug depot was simulated using a custom chamber and a syringe pump. The drug powder (600 µg) was weighed into the chamber, which had 1.5 ml of effective circulation volume to mimic the rabbit vitreous. The chamber was filled with 1.5 ml of Hank’s Balanced Salt Solution (HBSS). The chamber was then connected by tubing to a NE-1000 syringe pump (New Era Pump Systems, Farmingdale, NY) on one end and open tubing on the other end so that the solution could be collected into a vial (Figure 1). The syringe pump was set to a flow rate of 2 µl/min [12], and the syringe filled with HBSS. The entire setup was maintained at 37 °C and pumped continuously. This dissolution chamber mimics the rabbit vitreous fluid turnover only. […] At the same time every day, the vial was changed and the contents collected and stored at −80 °C until liquid chromatography/mass spectrometry (LC/MS) was performed.
Figure 1 The dissolution chamber is made of poly methyl methacrylate. Inlet tubing connects from a syringe pump to the upper part of the chamber, and the outlet tubing leaves from the lower part of the chamber to the sample collector. In the center of the dissolution chamber, a titanium mesh circle is installed to prevent the large drug particles reaching the lower chamber to possibly clog the outgoing tubing. The mesh contains […].

rat eyes = assay: Toxicity study of HDP-P-Ara-C in rat eyes (intravitreal injection); format: in vivo
Experimental: Twelve Brown Norway rats were used to evaluate the effect of intravitreal HDP-P-Ara-C versus control injection. […] Only one eye of each rat was injected with the drug, and the fellow eye was injected with saline as control. Electroretinograms (ERGs) were obtained before drug injection and 1 day before scheduled sacrifice. Following injection, toxicity and safety were evaluated with indirect ophthalmoscopy, biomicroscopy, and fundus photography. At week 2 following drug injections, all of the rats were euthanized with intraperitoneal injection of ketamine (100 mg/kg) and xylazine (10 mg/kg) followed by intraperitoneal injection of 120 mg/kg sodium pentobarbital. Six eyes were used for pathologic evaluation and six eyes used for evaluation of vitreous drug level. Vitreous drug levels were determined at the end of the experiment using high-performance liquid chromatography (HPLC).
(§2) Intraocular pressure (IOP) measurements and ERG recordings were repeated measurement data. Therefore, generalized estimating equations were used to compare the mean IOP and ERG amplitudes between each treatment group and the control group. All analyses were performed with SAS 9.2 software (SAS Institute Inc., Cary, NC), and the difference was considered to be significant when the p value was smaller than 0.05.

[2] = Water solubility (observation); format: physicochemical
rabbit eyes = assay: Toxicity study of HDP-cP-Ara-C in rabbit eyes (intravitreal injection); format: in vivo; details: for Dark A amp (dark adapted ERG a-wave amplitude) / Dark B amp / Flicker amp / Light A amp / Light B amp: OD, n=4, in µV (unit assumed)
Source text: Sixteen New Zealand Red rabbits were used for this study. Only one eye of each animal was used for the drug testing, and the fellow eye was used as a control by injection of the diluent. […] After the intravitreal injection, the rabbits were examined at week 1, 2, 4, 8, and 12 and then once a month for 7 months. The eyes were monitored with slit-lamp exam, tonometry, indirect ophthalmoscope, and fundus camera. The drug depot size was estimated and recorded using the optic disc area and the drug depot contour in the vitreous. The number of disc areas for estimating the two dimensions of the drug depot and the contour (ball=3, patch=2, filaments and dots=1) provides an estimate of the density of the drug depot. ERGs were recorded from all animals at week 2, week 8, and immediately before the animals were euthanized by deeply anesthetizing the animals with a combined ketamine (24 mg/kg) and xylazine (6 mg/kg) intramuscular injection followed by an intravenous injection of 0.3 ml/kg B-euthanasia (Schering-Plough Animal Health, Kenilworth, NJ).
as §2

[3] = parameters: method as in PMID 1917392; details: unmodified nucleoside; cited from earlier work
experimental PVR = tested on: experimental PVR; parameters: method as in PMID 10359331; details: intravitreal injection; cited from earlier work
herpes simplex virus = tested on: herpes simplex virus; parameters: method as in PMID 15505067; details: single intravitreal injection; cited from earlier work

CCCCCCCCCCCCCCCCOCCCOP(=O)(O)OC[C@H]1O[C@@H](n2ccc(N)nc2=O)[C@@H](O)[C@@H]1O [HDP-P-Ara-C, hexadecyloxypropyl cytarabine 5′-monophosphate]
CC50 (ARPE-19 cells): 52 ± 2.6 µM
CC50 (rMC-1 cells): 32 ± 2.2 µM
drug in eluate samples ([1]; day 7 and after): no drug was detected
drug cleared from the chamber ([1]; within 3 days, flow rate 2 µl/min): 99%
depot formation in the vitreous (rat eyes; after intravitreal injection): did not form a depot
ocular toxicity (rat eyes; intravitreal 2-228 µg/eye, 2 weeks): no ocular toxicity was found
ERG and pathology (rat eyes; intravitreal, 2 weeks): normal retinal physiology and histology
vitreous drug level (HPLC) (rat eyes; week 2 after intravitreal injection, including highest dose 228 µg/eye): not detectable; also recorded: no drug was detectable; also recorded: no HDP-P-Ara-C was detected

CCCCCCCCCCCCCCCCOCCCOP1(=O)OC[C@H]2O[C@@H](n3ccc(N)nc3=O)[C@@H](O)[C@@H]2O1 (stereo partly shown) [HDP-cP-Ara-C, hexadecyloxypropyl cytarabine 3′,5′-cyclic monophosphate]
water solubility [2]: limited aqueous solubility; also recorded: minimally water soluble; also recorded: sparingly water soluble
CC50 (ARPE-19 cells): 50 µM
TUNEL staining / retinal structure (rabbit eyes; 250 µg intravitreal, paraffin sections vs fellow eye): No structural abnormality or apoptosis; also recorded: normal structures and negative apoptosis staining
ERG examination (rabbit eyes; 250 µg or lower doses): did not reveal drug toxicity
eyes with direct contact of drug depot with optic nerve or inferior retina (gliosis, discoloration) (rabbit eyes; 800 µg, 7-month study): two eyes out of the four eyes
dark adapted a-wave and flicker ERG amplitude vs fellow control eyes (rabbit eyes; 800 µg/eye): significantly lower
intraocular pressure, injected eyes vs fellow eyes (rabbit eyes; 25-800 µg/eye): no significant difference
estimated time drug depot would be visible (rabbit eyes; 80 or 250 µg/eye, estimation of vitreal clearance): 3 months
time drug depots visible (rabbit eyes; all doses (25-800 µg/eye)): ≥ 2 months
Dark A amp (dark adapted ERG a-wave amplitude) (rabbit eyes; high dose 250 µg/eye): −15.6
Dark B amp (rabbit eyes; high dose 250 µg/eye): 83.19
Flicker amp (rabbit eyes; high dose 250 µg/eye): 25.07
Light A amp (rabbit eyes; high dose 250 µg/eye): −3.57
Light B amp (rabbit eyes; high dose 250 µg/eye): 49.68
Dark A amp (dark adapted ERG a-wave amplitude) (rabbit eyes; highest dose 800 µg/eye): −11.69
Dark B amp (rabbit eyes; highest dose 800 µg/eye): 95.35
Flicker amp (rabbit eyes; highest dose 800 µg/eye): 21.09
Light A amp (rabbit eyes; highest dose 800 µg/eye): −5.57
Light B amp (rabbit eyes; highest dose 800 µg/eye): 48.06
time drug depot still visible (rabbit eyes; highest dose (800 µg/eye)): ≥ 7 months
well tolerated dose (rabbit eyes; intravitreal): up to 250 µg/eye
Dark A amp (dark adapted ERG a-wave amplitude) (rabbit eyes; low dose 25 µg/eye): −14.44
Dark B amp (rabbit eyes; low dose 25 µg/eye): 88.14
Flicker amp (rabbit eyes; low dose 25 µg/eye): 22.58
Light A amp (rabbit eyes; low dose 25 µg/eye): −4.49
Light B amp (rabbit eyes; low dose 25 µg/eye): 47.93
Dark B amp (rabbit eyes; moderate dose 80 µg/eye): 79.31
Flicker amp (rabbit eyes; moderate dose 80 µg/eye): 23.51
Light A amp (rabbit eyes; moderate dose 80 µg/eye): −5.64
Light B amp (rabbit eyes; moderate dose 80 µg/eye): 42.83
AC cell (eyes affected/eyes) (rabbit eyes; week 1, 25 µg): 0/4
Fundus abnormality (eyes affected/eyes) (rabbit eyes; week 1, 25 µg): 0/4
Vit. Clarity (eyes affected/eyes) (rabbit eyes; week 1, 25 µg, haze from vitreous hemorrhage during injection): 1/4#
AC cell (eyes affected/eyes) (rabbit eyes; week 1, 80 µg): 0/4
Fundus abnormality (eyes affected/eyes) (rabbit eyes; week 1, 80 µg): 0/4
Vit. Clarity (eyes affected/eyes) (rabbit eyes; week 1, 80 µg): 0/4
AC cell (eyes affected/eyes) (rabbit eyes; week 1, 250 µg): 0/4
Fundus abnormality (eyes affected/eyes) (rabbit eyes; week 1, 250 µg): 0/4
Vit. Clarity (eyes affected/eyes) (rabbit eyes; week 1, 250 µg): 0/4
AC cell (eyes affected/eyes) (rabbit eyes; week 1, 800 µg): 0/4
Fundus abnormality (eyes affected/eyes) (rabbit eyes; week 1, 800 µg): 0/4
Vit. Clarity (eyes affected/eyes) (rabbit eyes; week 1, 800 µg): 0/4
AC cell (eyes affected/eyes) (rabbit eyes; week 8, 25 µg): 0/4
Fundus abnormality (eyes affected/eyes) (rabbit eyes; week 8, 25 µg): 0/4
Vit. Clarity (eyes affected/eyes) (rabbit eyes; week 8, 25 µg): 0/4
AC cell (eyes affected/eyes) (rabbit eyes; week 8, 80 µg): 0/4
Fundus abnormality (eyes affected/eyes) (rabbit eyes; week 8, 80 µg): 0/4
Vit. Clarity (eyes affected/eyes) (rabbit eyes; week 8, 80 µg): 0/4
AC cell (eyes affected/eyes) (rabbit eyes; week 8, 250 µg): 0/4
Fundus abnormality (eyes affected/eyes) (rabbit eyes; week 8, 250 µg): 0/4
Vit. Clarity (eyes affected/eyes) (rabbit eyes; week 8, 250 µg): 0/4
AC cell (eyes affected/eyes) (rabbit eyes; week 28, 800 µg): 0/4
Vit. Clarity (eyes affected/eyes) (rabbit eyes; week 28, 800 µg): 0/4
Fundus abnormality (eyes affected/eyes) (rabbit eyes; week 28, 800 µg, direct contact of depot with medullary ray or inferior retina): 2/4*
CC50 (rMC-1 cells): 25 µM
drug concentration in the eluate (low-level sustained release) ([1]; day 25 to day 36): about 16 ng/mL
day of peak release ([1]; dissolution chamber eluate): 9 days and ~10 days
hydrolysis to HDP-P-Ara-C during the dissolution experiment ([1]; eluate analysis, medium printed as PBS, HBSS): slow hydrolysis
time still detectable in dissolution chamber eluate ([1]; end of experiment, flow rate 2 µL/min): ≥ 36 days

Nc1ccn([C@@H]2O[C@H](CO)[C@@H](O)[C@@H]2O)c(=O)n1 [cytarabine, 1-β-D-arabinofuranosylcytosine]
intravitreal half-life [3]: ≤ 12 h

CCCCCCCCCCCCCCCCOCCCOP1(=O)OCC2OC(n3cc(F)c(=O)[nH]c3=O)CC2O1 (stereo not shown) [hexadecyloxypropyl 5-fluoro-2'-deoxyuridine cyclic 3′,5′-monophosphate]
effect on experimental PVR (experimental PVR): inhibited experimental PVR

CCCCCCCCCCCCCCCCOCCCOP1(=O)CO[C@@H](Cn2ccc(N)nc2=O)CO1 (stereo partly shown) [hexadecyloxypropyl cyclic cidofovir]
duration of herpes simplex virus suppression (herpes simplex virus): up to 4 months

From publication PMC3413433, “A novel cytarabine crystalline lipid prodrug: Hexadecyloxypropyl cytarabine 3′,5′-cyclic monophosphate for proliferative vitreoretinopathy” (Molecular Vision, 2012)
